{"source": "paper PMC10590756", "about": "“Glutarate regulates T cell metabolism and anti-tumour immunity” (Nature Metabolism, 2023)", "key": {"[1]": {"system": "H3 lysine methylation in human CD8^+ T cells", "test": "Histone 3 methylation western blot", "type": "cell-based", "conditions": "DEG 500 µM, 7 days", "experimental": "Histones were extracted with the Histone Extraction Kit (catalogue no. ab113476, Abcam). Proteins were separated by SDS–PAGE and transferred to polyvinylidene fluoride (PVDF) membranes. Total protein stain was obtained using non-stain protein labelling reagent (catalogue no. A44448, Thermo Fisher Scientific). Membranes were then blocked in 5% milk prepared in PBS plus 0.05% Tween-20, incubated with primary antibodies overnight at 4 °C and horseradish peroxidase (HRP)-conjugated secondary antibodies (catalogue nos. HAF008 and HAF007, R&D Systems) for 1 h the next day. After enhanced chemiluminescence (ECL) exposure (catalogue no. GERPN2106, Sigma-Aldrich), membranes were imaged using an iBrightCL1000 (Thermo Fisher Scientific). […] 13998); and anti-H3k27ac (catalogue no."}, "[2]": {"parameters": "method as in PMID 29989593", "conditions": "approved by the European Union for use as a food additive; cited from earlier work"}, "human CD8^+ T cells": {"system": "human CD8^+ T cells", "test": "Glucose uptake assay", "type": "cell-based", "conditions": "500 µM DEG, acute and chronic", "experimental": "Glucose uptake was determined using a Glucose Uptake Assay Kit (catalogue no. J1341, Promega Corporation). The assay was performed according to the manufacturer’s instructions. Data were acquired on the FLUOstar Omega."}, "[3]": {"target": "T1, PDHE2 lipoate in human CD8^+ T cells (Homo sapiens, UniProt P10515)", "T1 construct": "We treated human CD8^+ T cells with DEG and observed reduced PDHE2 lipoate level; endogenous in cells; host or cells: primary human CD8+ T cells", "T1 sequence (P10515 87-647)": "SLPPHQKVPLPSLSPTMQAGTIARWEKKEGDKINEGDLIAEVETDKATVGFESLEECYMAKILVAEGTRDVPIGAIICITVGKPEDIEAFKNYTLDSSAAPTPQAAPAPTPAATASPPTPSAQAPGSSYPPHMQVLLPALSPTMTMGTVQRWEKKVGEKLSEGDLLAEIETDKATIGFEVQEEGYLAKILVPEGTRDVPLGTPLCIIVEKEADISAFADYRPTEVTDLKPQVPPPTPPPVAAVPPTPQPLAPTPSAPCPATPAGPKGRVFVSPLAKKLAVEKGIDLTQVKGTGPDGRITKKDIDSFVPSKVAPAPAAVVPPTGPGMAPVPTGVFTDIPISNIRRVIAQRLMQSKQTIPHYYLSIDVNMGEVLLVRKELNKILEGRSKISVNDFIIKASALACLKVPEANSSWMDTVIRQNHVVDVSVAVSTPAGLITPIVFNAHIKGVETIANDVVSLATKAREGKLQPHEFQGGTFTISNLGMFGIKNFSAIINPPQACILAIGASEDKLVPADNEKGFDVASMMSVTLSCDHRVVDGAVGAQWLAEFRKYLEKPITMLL", "test": "PDHE2 lipoate western blot", "type": "cell-based", "conditions": "500 µM DEG, 24 h", "experimental": "Lipoic acid western blotting was performed as above with the following alterations: blocking buffer and secondary antibody buffer (5% milk plus 1% fatty acid free bovine serum albumin (BSA) (catalogue no. BP9704100, Thermo Fisher Scientific) prepared in PBS plus 0.05% Tween-20); and primary antibody buffer (2% fatty acid free BSA prepared in PBS plus 0.05% Tween-20). Lipoic acid antibody was used at a concentration of 1:2,000 (catalogue no. 437695, Sigma-Aldrich). Data were analysed using the iBright Analysis Software v.4.0.1 or ImageJ."}, "PDHE2 K259 in HeLa cells": {"target": "T2, PDHE2 K259 in HeLa cells (Homo sapiens, UniProt P10515)", "T2 construct": "Proteomic analysis of PDHE2 immunoprecipitated from HeLa cells; endogenous in cells; host or cells: HeLa cells", "T2 sequence (P10515 87-647)": "as above", "test": "Proteomic analysis of PTMs on immunoprecipitated PDHE2", "type": "cell-based", "conditions": "500 µM DEG, 24 h", "experimental": "HeLa cells were lysed on ice for 30 min in a HEPES buffer (150 mM NaCl, 50 mM HEPES, pH 7.0, 1% IGEPAL CA-630, 1 mM nicotinamide (Sigma-Aldrich), 5 mM Tris(2-carboxyethyl)phosphine hydrochloride (Sigma-Aldrich), 1× Complete Protease Inhibitor Cocktail (Roche) and 1 mM phenylmethylsulfonyl fluoride). Lysates were centrifuged at 14,000g for 10 min at 4 °C. Free thiols were blocked by adding 10 mM N-ethylmaleimide (NEM) (Sigma-Aldrich) and incubated on a rotator at 4 °C for 1 h. Lysates were immunoprecipitated by incubation with protein G Dynabeads (catalogue no. 10003D, Invitrogen), first for 1 h to pre-clear, and then overnight with the DLAT antibody (12362S (4A4-B6-C10), Cell Signaling Technology). […]\nRaw files were processed using PEAKS Studio (v.8.0, Bioinformatics Solutions) with the following parameters: enzyme: AspN, human database (UniProt reference proteome downloaded 21 January 2021 containing 20,541 proteins) with additional contaminant database (containing 246 common contaminants); variable modifications at PEAKS database stage: oxidation, carbamidomethylation, lipoylation, 1× and 2× NEM, glutaryl lipoate, NEM glutaryl lipoate and 309 built-in modifications at PEAKS PTM stage. The area under the curve (AUC) values for each peptide were extracted from the PEAKS peptide list, with AUCs calculated by PEAKS."}}, "data": [{"smiles": "CCOC(=O)CCCC(=O)OCC", "note": "[DEG, Diethyl glutarate]", "values": [{"measurement": "dimethylation of H3K9", "setting": "[1]", "value": "increased"}, {"measurement": "trimethylation of H3K9", "setting": "[1]", "value": "increased"}, {"measurement": "trimethylation of H3K27", "setting": "[1]", "value": "increased"}, {"measurement": "toxicity", "setting": "[2]", "value": "non-toxic"}, {"measurement": "rate of glucose uptake", "setting": "human CD8^+ T cells", "value": "no changes"}, {"measurement": "PDHE2 lipoate level", "setting": "[3]", "value": "reduced"}, {"measurement": "levels of glutaryl-lipoyl K259 of PDHE2", "setting": "PDHE2 K259 in HeLa cells", "value": "increasing"}, {"measurement": "levels of lipoyl K259 of PDHE2", "setting": "PDHE2 K259 in HeLa cells", "value": "reduced"}]}]}
